# Source: patent publication US9561265B2, “KIF20A epitope peptides for TH1 cells and vaccines containing the same” (ONCOTHERAPY SCIENCE, INC., priority 2012, dated 2017)
# Tests used:
# [1] = test system: KIF20A-A24 (66-75) SP-specific CD8^+ T-cells; experiment: Expansion and CD107a expression of KIF20A-A24 (66-75) SP-specific CTLs cultured with LP-specific Th cells; format: cell-based, human; conditions: donor HDK5
# Description: [FIG. 7C-D] In Part C, CD107a expression of KIF20A-A24 (66-75) SP-specific CD8^+ T-cells expanded by activated KIF20A (809-833) LP-specific Th cells. KIF20A (809-833) LP-specific bulk CD4^+ T-cells and KIF20A-A24 (66-75) SP-specific bulk CD8^+ T-cells derived from HLA-A24^+/DR15^+ (HDK5) were cultured with autologous DCs in the presence of KIF20A-A24 (66-75) SP (SP alone), KIF20A-A24 (66-75) SP+Control LP (Control LP+SP), or KIF20A-A24 (66-75) SP+KIF20A (809-833) LP (KIF20A (809-833)-LP+SP) without addition of any cytokine. After 1-week in vitro culture with peptides, the cultured cells were stained with PE-labeled tetramer of the HLA-A*24:02/KIF20A-A24 (67-75) complex and PerCP-labeled anti-human CD8 mAb. Data are presented as the mean+/−SD of triplicate assays. Representative data from 3 independent experiments with similar results are shown. In Part D, After 1-week in vitro culture with peptides, the cultured cells were re-stimulated with KIF20A-A24 (66-75) SP and stained with PE-labeled tetramer of the HLA-A*24:02/KIF20A-A24 (67-75) complex, FITC-labeled anti-human CD107a mAb, and PerCP-labeled anti-human CD8 mAb. The absolute number of KIF20A-A24 (66-75) SP-specific CTLs expressing CD107a on the cell surface after re-stimulation with KIF20A-A24 (66-75) SP was shown. Data are presented as the mean+/−SD of triplicate assays. […]
# [2] = test system: KIF20A-A24 (66-75)-specific CD8^+ T cells; experiment: Stimulation of PBMC with the KIF20A long peptide (tetramer staining, IFN-gamma ELISPOT); format: cell-based, human
# Description: The immune response of Th cells to APCs pulsed with peptides and proteins were assessed by IFN-gamma ELISPOT assays (Human IFN-gamma ELISPOT kit, BD Biosciences) as described previously (Tomita Y, et al. Cancer Sci; 102: 697-705.). Briefly, the frequency of peptide-specific CD4^+ T cells producing IFN-gamma per 3×10^4 bulk CD4^+ T cells upon stimulation with peptide-pulsed PBMCs (3×10^4), or 1×10^4 bulk CD4^+ T cells upon stimulation with peptide-pulsed L-cells (5×10^4/well) expressing HLA-DR was analyzed. The frequency of cells producing IFN-gamma per 1×10^5 CTLs upon stimulation with peptide-pulsed T2 cells (2×10^4/well) or C1R-A2402 cells (2×10^4/well) was also analyzed. Alternatively, 5×10^3 protein-loaded DCs were co-cultured with 2×10^4 CD4^+ T cell clones/well. The protein-loaded mature DCs were prepared from positively isolated CD14^+ cells (day 0) as described previously (Harao M, et al. Int J Cancer 2008; 123: 2616-25.). On day 5, the DCs were cultured in the presence of the recombinant KIF20A (50 micro-g/ml) and OK432. The protein-loaded mature DCs were harvested on day 7, washed and used as stimulator in IFN-gamma ELISPOT assays. To determine restriction HLA molecules involved in antigen presentation, blocking of antigen-induced IFN-gamma production was investigated by adding anti-HLA-DR mAb (L243, Biolegend), anti-HLA-DP mAb, (B7/21, abcam), anti-human HLA-DQ mAb (SPV-L3, abcam), or anti-HLA class I mAb, (W6/32, abcam). All mAbs were used at a final concentration of 5 micro g/ml. All assessments of IFN-gamma ELISPOT assays were carried out in duplicate or triplicate, and results corresponded to mean values.
# To assess the induction of KIF20A-A24 (66-75) SP-specific CTLs from HLA-A24-positive donors by the simulation with KIF20A (60-84) LP in vitro, PBMC (2×10^6/well of 24-well plates) were incubated with KIF20A-derived LPs (7 micro-M) for 2 weeks without addition of any cytokine. On day 0 and 7, KIF20A-derived LPs (7 micro-M) was added, then on day 14 of in vitro stimulation with LPs, the cells were harvested, stained with a PE-labeled tetramer of the HLA-A*24:02/KIF20A-A24 (66-75) peptide complex in combination with a FITC-labeled anti-human CD8 mAb, and analyzed by flow cytometry.
# HLA-A24 Tgm = experiment: Immunization of HLA-A24 Tgm with LP, ex vivo IFN-gamma ELISPOT; format: in vivo, mouse; conditions: HLA-A24 Tgm immunized three times with LP
# Description: [FIG. 6C] In Part C, Induction of KIF20A-A24 (66-75) SP-specific CTLs in mice immunized with KIF20A (60-84) LP. HLA-A24 Tgm were immunized with KIF20A (60-84) LP. After the third vaccination with KIF20A (60-84) LP, mouse CD8^+ T-cells in the inguinal lymph nodes were stimulated with BM-DC pulsed with KIF20A-A24 (66-75) SP. The number of IFN-gamma producing murine CD8^+ T-cells was analyzed by ex vivo ELISPOT assay. Representative data from 5 independent experiments with similar results are shown.
# The capacity of KIF20A (60-84) LP to prime KIF20A-A24 (66-75) SP-specific CTLs in vivo was examined by an ex vivo IFN-gamma ELISPOT assay. HLA-A24 Tgm were immunized three times with KIF20A (60-84) LP.
sequence,measurement,setting,value
CIAEQYHTVLKLQGQVSAKKRLGTN [KIF20A (809-833)],Absolute number of KIF20A-A24 (66-75) SP-specific CTLs expressing CD107a,"[1]; SP+LP culture, after re-stimulation with SP",significantly augmented
same,Absolute number of KIF20A-A24 (66-75) SP-specific CD8^+ T-cells,"[1]; SP+LP with LP-specific bulk CD4+ T-cells and autologous DCs, 1 week, vs SP alone or Control LP+SP",significantly increased
DSMEKVKVYLRVRPLLPSELERQED [KIF20A (60-84)],Expansion of HLA-A24-restricted KIF20A-A24 (66-75) SP-specific CD8^+ T cells (tetramer labeling),"[2]; PBMC stimulated twice with 7 micro-M peptide, day 14",induced an expansion
same,Absolute numbers of CD8^+ tetramer^+ cells,"[2]; PBMC stimulated with peptide, HLA-A24-positive donor",significantly increased
same,IFN-gamma production of CD8^+ T-cells of vaccinated mice on stimulation with BM-DCs pulsed with KIF20A-A24 (66-75) SP,HLA-A24 Tgm,produced IFN-gamma
